One assay deals with SCC cells and LL/2 cells. In words: Tumor cell invasion assay (modified Boyden chamber, Matrigel). Type of assay: cell-based, human and murine. As to conditions: SCC and LL/2 cells in Matrigel chambers, 24 hrs. As to the method: An in vitro assay is modified after that described previously by Chu et al. (1993) Proc. Natl. Acad. Sci. 90, 4261-4265, utilizing Matrigel®, a reconstituted basement membrane. In essence, a modified Boyden chamber containing an 8 μm-porosity polyvinylpyrolidone-free polycarbonate filter is precoated with Matrigel® (Collaborative Biomedical Products, Becton Dickinson, Bedford, Mass.). The lower well of the chamber is then filled with serum free medium containing 500 μl of 3T6 cell-conditioned medium as a chemoattractant. The upper well is then seeded with 200 μl of cell suspension at 1.0×10^4 cells/chamber plus additives as indicated. The chambers are then incubated at 37° C. for 24 hrs. […] The resulting cells contained in Matrigel®, as well as the cells in the lower chamber, are counted in a Coulter counter. Data are expressed as the percent invasion through the matrix and membrane relative to the migration through the control membrane. The “Invasion Index” is expressed as the ratio of the percent invasion of a test cell over the percent invasion of a control cell.
Overall treatment and group effects are assessed using an analysis of variance (ANOVA), with post-hoc comparisons based on the Newman-Keuls test (p<0.05). The association of mean HSP47 fluorescence labeling with the invasion index is evaluated using the nonparametric Spearman's rank-order correlation coefficient (rho).

In another assay the test system is colligin/Hsp47. Put plainly: Cell surface labeling, cross-linking and immunoprecipitation. Type of assay: cell-based, human and murine. As to conditions: 1 mM amiloride; SCC and LL/2 cells. As to the method: The methods used were previously described for the characterization of TM4SF complexes with integrins (Berditchevski et al., (1996) Molec. Biol. of the Cell 7, 193-207). In essence, cells are labeled with NHS-LC-biotin (Pierce, Rockford, Ill.) according to kit protocol, and lysed in immunoprecipitation buffer [1% Brij 96, 25 mM Hepes, pH 7.4, 150 mM NaCl, 5 mM MgCl2, 2 mM PMSF, 20 μg/ml apotinin, and 10 μg/ml leupeptin]. Immune complexes are collected on protein A beads pre-bound with antibodies, followed by four washes with immunoprecipitation buffer. For more “stringent” conditions, the immunoprecipitation buffer is supplemented with 0.2% SDS. Immune complexes are eluted from protein A beads with Laemmli elution buffer and proteins are separated by SDS-PAGE. Proteins are transferred to nitrocellulose membranes and visualized with HRPO-conjugated ExtrAvidin (Sigma Chemical Co., St. Louis Mo.) using Renaissance Chemiluminescent Reagents (NEN, Cambridge). Reprecipitations are preformed from Brij 96 lysates prepared from surface-biotinylated SCC cells. […]
(§1) For cross-linking, cells are treated with DTSSP, a membrane impermeable cross-linker or DSP. After solubilization in immunoprecipitation buffer supplemented with 0.2% SDS protein complexes are immunoprecipitated as above and analyzed under reducing conditions.

Assay [1] addresses T1, colligin/Hsp47 on the surface of murine Lewis Lung Carcinoma (LL/2) cells (murine, UniProt P19324 18-417).
T1 construct: whole, on cells; Endogenous protein of LL/2 cells
T1 sequence (looked up): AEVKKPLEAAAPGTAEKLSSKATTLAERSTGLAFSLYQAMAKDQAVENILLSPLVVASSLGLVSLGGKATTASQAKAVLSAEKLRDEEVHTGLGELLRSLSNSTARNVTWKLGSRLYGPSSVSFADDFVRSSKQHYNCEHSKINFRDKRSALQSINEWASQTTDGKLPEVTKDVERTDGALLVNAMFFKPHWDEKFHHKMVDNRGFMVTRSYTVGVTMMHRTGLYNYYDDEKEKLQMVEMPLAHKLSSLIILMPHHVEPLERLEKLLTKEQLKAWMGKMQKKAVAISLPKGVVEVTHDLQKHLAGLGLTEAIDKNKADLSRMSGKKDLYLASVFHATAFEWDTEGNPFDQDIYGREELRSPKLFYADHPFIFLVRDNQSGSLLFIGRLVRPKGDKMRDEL
In words: cross-linking (DSP) and immunoprecipitation with anti-CD81 mAbs, LL/2 cells. The protocol:
(§2) Reprecipitations are preformed from Brij 96 lysates prepared from surface-biotinylated SCC cells. After five washes with the immunoprecipitation buffer, the protein complexes are dissociated with 0.5% SDS added to the immunoprecipitation buffer. The eluates are subsequently diluted 1:1 with immunoprecipitation buffer and re-precipitated with the appropriate antibodies directly coupled to Sepharose beads. The samples are then processed as described above.
as §1
(§3) Membrane surface proteins are consistently co-precipitated with anti-colligin/Hsp47 antibodies. In cross-linking studies, SCC and LL/2 cells are first pre-treated with a cleavable cross-linker, DSP, then surface labeled with biotin or [^125]-I, and subsequent immunoprecipitation is carried out under stringent conditions to disrupt the noncovalent association between Hsp and tetraspanin protein. […] A characteristic 47K band is readily detected in all anti-CD9 immunoprecipitates and protein band of 22K, similar in size to CD9/or CD81, is co-precipitated with anti-colligin/Hsp47. […]

The target of assay [2] is T2, colligin/CBP2/Hsp47 on the surface of human carcinoma cells (human, UniProt P50454 19-418).
T2 construct: whole, on cells; Endogenous protein on intact cells or in plasma membrane preparations or Brij 96 lysates of surface-biotinylated cells; The 46K band is called unglycosylated Hsp47; also called colligin/Hsp47; cell surface colligin/Hsp47
T2 sequence (looked up): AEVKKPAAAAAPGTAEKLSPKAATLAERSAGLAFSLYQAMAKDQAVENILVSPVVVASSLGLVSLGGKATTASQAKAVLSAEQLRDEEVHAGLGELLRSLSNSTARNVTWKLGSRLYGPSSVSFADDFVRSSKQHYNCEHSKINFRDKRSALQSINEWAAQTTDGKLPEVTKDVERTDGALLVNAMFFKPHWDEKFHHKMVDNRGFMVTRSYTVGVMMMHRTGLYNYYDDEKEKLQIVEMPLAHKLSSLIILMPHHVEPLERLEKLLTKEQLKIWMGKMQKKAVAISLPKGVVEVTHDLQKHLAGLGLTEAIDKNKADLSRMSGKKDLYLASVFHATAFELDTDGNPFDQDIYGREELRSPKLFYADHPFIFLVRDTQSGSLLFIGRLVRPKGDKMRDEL
In words: cross-linking (DSP) and immunoprecipitation with anti-CD81 mAbs, SCC cells. The protocol:
as §2, §1, §3

As to `N=C(N)NC(=O)c1nc(Cl)c(N)nc1N` [amiloride], in the assay on SCC cells and LL/2 cells, the invasion index result was “dramatically decreases the invasion index”. Further, the “amount of colligin/Hsp47 recovered following immunoprecipitation” value in the assay on colligin/Hsp47 is given as “greatly enhances”.

B1: CD81 on murine LL/2 cells (other, UniProt P35762 1-236, looked up)
chain: MGVEGCTKCIKYLLFVFNFVFWLAGGVILGVALWLRHDPQTTSLLYLELGNKPAPNTFYVGIYILIAVGAVMMFVGFLGCYGAIQESQCLLGTFFTCLVILFACEVAAGIWGFVNKDQIAKDVKQFYDQALQQAVMDDDANNAKAVVKTFHETLNCCGSNALTTLTTTILRNSLCPSGGNILTPLLQQDCHQKIDELFSGKLYLIGIAAIVVAVIMIFEMILSMVLCCGIRNSSVY
notes: whole, on cells
For B1, the binding result in assay [1] is reported as “no binding”.

B2: CD81 on human SCC cells (other, UniProt P60033 1-236, looked up)
chain: MGVEGCTKCIKYLLFVFNFVFWLAGGVILGVALWLRHDPQTTNLLYLELGDKPAPNTFYVGIYILIAVGAVMMFVGFLGCYGAIQESQCLLGTFFTCLVILFACEVAAGIWGFVNKDQIAKDVKQFYDQALQQAVVDDDANNAKAVVKTFHETLDCCGSSTLTALTTSVLKNNLCPSGSNIISNLFKEDCHQKIDDLFSGKLYLIGIAAIVVAVIMIFEMILSMVLCCGIRNSSVY
notes: whole, on cells
As for B2, in assay [2], the binding result is “no binding”.

The record behind these values is patent US7361730B1, “Surface localized colligin/Hsp47 in carcinoma cells” (University of Maryland, priority 1999, dated 2008).
